Results on 88 compounds are retold here after a melting point compilation (Tetko et al.; mined from patent text by program, amines drawn as free bases though some values may be those of a salt).

In turn, `CC(=O)N1CCC2(CC1)Nc1cc(C)ccc1-n1cccc12` displayed a melting point of 212 to 213 °C.

Turning to `COC(=O)c1sc2c(c1C)c1ccccc1n2Cc1ccccc1`, the melting point was 132 to 134 °C.

`CCN(C(=O)OC)c1cccc(-c2ccc3nnc(C)n3n2)c1` gave a melting point of 176 to 178 °C.

In the case of `COC(=O)c1ccc(N=CC=Cc2ccccc2)cn1`, the melting point was in the range of 128 to 131 °C.

For `COc1ccc(CN(CC(=O)NO)S(=O)(=O)c2ccc(OC)cc2)cc1`, the melting point is 134 to 136 °C.

In turn, `COc1ccc2c(c1)c(Cc1cc(=O)n(-c3cccc(C)c3)[nH]1)c(C)n2C(=O)c1ccc(Cl)cc1` returned a melting point of 120 to 122 °C.

With `CCCCCCCCCCCCCCCCCCNC(=O)OC[C@H]1CC[C@@H](CO)O1` (relative stereo), the melting point lay in the range of 79 to 80 °C.

Turning to `CN1CCN(c2ccc(S(=O)(=O)Oc3ccc(F)cc3)cc2)C1=O`, the melting point was 170 to 172 °C.

For the compound `CN1C(=O)C(C)(C)c2ccc(C(=O)Nc3ccccc3)cc21`, the melting point lay in the range of 184 to 186 °C.

Turning to `NC(=O)OC(CC(=NNC(N)=S)c1ccccc1)c1ccccc1` (stereo not drawn), the melting point is 149 to 150 °C.

Regarding `Cn1nc(Oc2ccc(N)c(N)c2)cc1C(F)(F)F`, the melting point fell in the range of 109 to 111 °C.

Turning to `CCN(CC)c1ccc(-c2ccc3c(c2)C=C(C(=O)Nc2ccc(CN(C)C4CCOCC4)cc2)CCS3(=O)=O)cc1`, the melting point was 240 to 246 °C.

The compound `Cn1cc(C(=O)CCN2CCCCC2)cc1C(=O)c1cccc2ccccc12` displayed a melting point of 141 to 143 °C.

Regarding `Cn1c(=O)c(=O)[nH]c2c3ccccc3ccc21`, the melting point is 333 °C.

Consider `CC1(C)Cc2ccoc2C(=O)N1`, for which the melting point is 133 to 134 °C.

Compound `Cc1nc(-c2ccccc2)n(C)c1C=NOCCO` returned a melting point of 95 to 97 °C.

In turn, `NNC(=O)CCc1cccc(F)c1` came in with a melting point of 109 to 110 °C.

`Nc1cc2nc(C(=O)O)c(=O)[nH]c2cc1[N+](=O)[O-]` had a melting point of 300 °C.

`Cc1ccc([N+](=O)[O-])c(OCCOc2cc(C(=O)OC(C)(C)C)ccc2[N+](=O)[O-])c1` returned a melting point of 113 to 114 °C.

`COc1cc(NCCCCCC(=O)NCC(C)C)c2nccc(C)c2c1` gave a melting point of 111 to 112 °C.

Compound `CC(C)c1cccc(C(C)C)c1N1C(=O)c2cccc3c(Cl)ccc(c23)C1=O` displayed a melting point of 289 °C.

For the compound `COC(=O)C(C)(C)S(=O)(=O)N1CCC(c2ccc(-c3nccs3)c(C)c2)CC1`, the melting point is 111 to 114 °C.

In turn, `O=[N+]([O-])c1cccnc1Nc1ccccc1F` returned a melting point of 97 °C.

`COCO[C@@H]1[C@H]2OC(C)(C)O[C@H]2[C@H](O[C@H]2C[C@H]3OC(C)(C)OC[C@]34C3C(CC[C@]4(O)C2)[C@@]2(O)CC[C@H](CO)[C@@]2(C)C[C@H]3OCOC)O[C@H]1C` (stereo partly drawn) displayed a melting point of 126 to 129 °C.

The compound `Fc1cc(F)c(-c2c(F)nc3nncnc3c2F)c(F)c1` showed a melting point of 160 to 161 °C.

The compound `N#CC1(O)COc2ccccc2OC1` yielded a melting point of 108 to 110 °C.

Take `CS(=O)(=O)Nn1c(=O)[nH]c2cc([N+](=O)[O-])c(NC3CCCC3)cc2c1=O`: the melting point was in the range of 146 to 155 °C.

Regarding `NC(=O)c1snnc1C1CC1`, the melting point was determined as 163 °C.

Turning to `CCC1(CC)CN(C(C)(C)C)C(=O)C(CC)(CC)N1OC(C)(C)C#N`, the melting point was in the range of 45 to 52 °C.

`CCCOc1ccc(S(=O)(=O)N2CCN(CCOC(C)=O)CC2)cc1-c1nc2c(CCC)cn(CC)c2c(=O)[nH]1` had a melting point of 139 to 140 °C.

As to `C1=C(c2ccc3c(c2)OCCO3)CCN(CCc2cccc3ccccc23)C1`, the melting point was 170 to 180 °C.

`O=c1c(C2CC2)c(N2CCC(c3ccccc3)CC2)ccn1CC1CC1` showed a melting point of 202 °C.

As to `CC(C)OC(=O)c1nc(-c2ccc(=O)[nH]c2)c(-c2ccccc2)nc1N`, the melting point fell in the range of 250 to 256 °C.

In the case of `Cc1n[nH]c(CCCCn2cnc(NC(N)=NCC(F)(F)F)n2)n1`, the melting point was in the range of 175 to 176 °C.

As to `CCOC(=O)C1=C(C)NC(C)=C(C(=O)OCC)C1c1cc(Cl)ccc1Cl`, the melting point was 166 to 168 °C.

Compound `COc1ccc(N2CCN(c3c(C)c(C)c4c(c3C)C(c3ccccn3)C(C)(C)O4)CC2)cc1` (stereo not drawn) showed a melting point of 123 to 125 °C.

Turning to `O=C(O)c1cn(C2CC2)c2c(C(F)(F)F)c(N3CCC(c4ccncc4)C3)c(F)cc2c1=O` (stereo not drawn), the melting point was 244 to 245 °C.

The compound `O=C1CCC(c2ccc(O)cc2)CC1` came in with a melting point of 165 to 166 °C.

In turn, `CC(C)(C=O)CN1CCN(CC(C)(C)C=O)C1=O` gave a melting point of 78 to 80 °C.

`CCCOc1ccccc1-c1nc2cc3ncn(CC4CCCCC4)c3cc2c(=O)[nH]1`: the melting point was 223 to 226 °C.

Take `Cc1ccc(N=C=O)c(S(=O)(=O)Cl)c1`: the melting point was 36 to 38.5 °C.

Regarding `Cc1cc(F)c(Nc2ncnc3cc(NC(=O)CCN4CCOCC4)ccc23)cc1O`, the melting point lay within 228 to 233 °C.

Consider `COC(=O)c1ccc(OC)cc1S(=O)(=O)Cl`, for which the melting point lay within 69 to 72 °C.

Compound `CCCc1nn(C)c2c(=O)[nH]c(Cc3ccc(S(=O)(=O)N[C@@H](CO)C(N)=O)cc3)nc12` showed a melting point of 226 to 229 °C.

The compound `Cc1nc(OCC(F)(F)F)c([N+](=O)[O-])c(N2CCC(c3ccccc3)CC2)n1` gave a melting point of 114 to 117 °C.

Compound `CC(C)(O)CNc1c([N+](=O)[O-])cnc2cccnc12` gave a melting point of 184 to 186 °C.

Consider `CCCCCc1ccc(-c2ccc(F)cc2)nc1`, for which the melting point stood at 27 °C.

For the compound `CC(=O)OC1CSC(Oc2cccnc2F)C(OC(C)=O)C1OC(C)=O` (stereo not drawn), the melting point came out at 160 °C.

In turn, `COC(=O)c1cccc([N+](=O)[O-])c1-c1ccc2ccccc2c1OC` had a melting point of 139 to 141 °C.

With `Cc1cccc(-c2[nH]c(C(C)C)nc2-c2cccc(-c3cccc(F)c3)c2)n1`, the melting point fell in the range of 140 to 142 °C.

With `COc1ccc(C(=O)Nc2ccccc2)cc1NS(=O)(=O)c1ccc(C)cc1`, the melting point was 200 to 202 °C.

`CN1CCC(c2cn(S(=O)(=O)c3c(F)cccc3F)c3ccc(OS(=O)(=O)c4c(F)cccc4F)cc23)CC1`: the melting point fell in the range of 95 to 98 °C.

`CC(=O)OC1CSC(Oc2cccc3oc(C)nc23)C(OC(C)=O)C1OC(C)=O` (stereo not drawn) yielded a melting point of 149 to 151 °C.

Compound `CCCCCCCCCCCOc1cc(C(=O)O)ccc1CO` gave a melting point of 82 to 83 °C.

In turn, `N#CC(CCOc1ccc(Br)cc1)c1ccc(Cl)cc1Cl` (stereo not drawn) yielded a melting point of 73.9 °C.

Compound `CCOC(=O)c1cn(Cc2ccccc2)nc1OCc1ccc(OCc2nc(-c3ccco3)oc2C)c(Br)c1` yielded a melting point of 158 to 159 °C.

Regarding `N#CCC(=O)Nc1c([N+](=O)[O-])cnn1-c1c(Cl)cc(C(F)(F)F)cc1Cl`, the melting point fell in the range of 221 to 223 °C.

As to `Cn1cccc1CCN1C(=O)NCc2c(-c3ccccc3)cccc21`, the melting point was in the range of 158 to 161 °C.

As for `CCCN(Cc1cccc(-c2noc(C)n2)c1)C(=O)Cc1ccc(-c2ccccc2S(=O)(=O)NC(C)(C)C)cc1`, the melting point lay in the range of 132 to 133 °C.

Take `CC(C)c1nsc2c1C(=O)N(C(C)(C)C)C2=O`: the melting point was in the range of 52 to 53 °C.

Compound `Oc1cc(-c2ncc(C(F)(F)F)cc2Cl)ccc1Cl` displayed a melting point of 105 to 107 °C.

For the compound `CC12CCC(=O)N1CCCN2C(=O)C(Cl)Cl` (stereo not drawn), the melting point is 144 to 147 °C.

`COCc1cn(-c2ccccc2)nc1OCc1ccc(OCc2nc(-c3ccco3)oc2C)c(OC)c1`: the melting point was in the range of 121 to 122 °C.

For the compound `CC(C)(C)c1ccc(C2=NC[C@@H](O)[C@H](c3ccccc3)O2)cc1` (racemic), the melting point worked out at 50 °C.

In turn, `CCOC(=O)CSc1ccc(-c2nc3cnccc3[nH]2)cc1` displayed a melting point of 230 °C.

`CCCn1c(=O)c(N=O)c(N)n(CC2CCCCC2)c1=O` yielded a melting point of 231 to 233 °C.

As for `CP(C)(=O)CCCOC(=O)c1ccccc1Nc1ccnc2cc(Cl)ccc12`, the melting point was 162 °C.

On to `Cc1ccc(Nc2nc3ccccc3c3[nH]c(C4CCCC4)nc23)cc1`, for which the melting point was in the range of 125 to 126 °C.

In the case of `CC(Oc1cccc(C(=O)NCCN(O)C(N)=O)c1)c1ccccc1` (stereo not drawn), the melting point was 164 to 165 °C.

Turning to `COc1cc(C)nc(NC(=O)NS(=O)(=O)c2csc3ccccc23)n1`, the melting point lay in the range of 180 to 181 °C.

The compound `CCOC(=O)c1c[nH]c2c(-c3ccncc3)c(-c3ccc(F)cc3)nn2c1=O` gave a melting point above 250 °C.

`COc1cccc(OC)c1-c1ccc(C[C@H](NC(=O)c2c(Cl)cc(-c3nccs3)cc2Cl)C(=O)O)cc1` registered a melting point of 142 °C.

The compound `CC(C(=O)N1CCCC(C)(C)C1)N(C(=O)CN1C(=O)c2ccccc2C1=O)c1ccccc1` (racemic) returned a melting point of 171 °C.

`CC(C)(C)OC(=O)NCc1ccc(N)cc1` displayed a melting point of 74.4 °C.

`N#CC1=CC(CF)(CF)Oc2ccc([N+](=O)[O-])cc21` yielded a melting point of 136 to 137 °C.

`CCNc1ncc(Nc2ccc(Cl)cc2)nc1-n1nc(C)cc1C` showed a melting point of 122 to 124 °C.

On to `COc1ccc2cc(COC(C)(C(=O)O)C(F)(F)F)ccc2c1` (stereo not drawn), for which the melting point was 117 to 119 °C.

In turn, `COCOc1c(-c2cncc3cccc([N+](=O)[O-])c23)ccc(OC)c1OC` had a melting point of 138 to 140 °C.

`COc1ccc(NC(=O)N2CCCC2=O)cc1`: the melting point lay within 113 to 114 °C.

`CCc1nccn1Cc1ccc2c(c1)-c1[nH]nc(-c3ccsc3)c1C2` registered a melting point of 238 to 239 °C.

`O=C(Cl)Cc1ccccc1Br` gave a melting point of 79 °C.

As to `COC(=O)CNC(=O)CC(=O)CBr`, the melting point is 76 to 77 °C.

The compound `COC(=O)Cc1cccc(C(=O)c2ccc(O)cc2)c1` yielded a melting point of 111 to 113 °C.

In turn, `CCCC(c1ccc(C)cc1)n1c(C(=O)OC)cnc1S` (stereo not drawn) returned a melting point of 209 to 211 °C.

For the compound `COCOc1c(C)cc(-c2ccc(C(=O)OC)cc2)cc1C`, the melting point is 100 to 101 °C.

`COCCOc1cc(N(C)S(=O)(=O)c2cccs2)c2[nH]c(C3=NCC(CC(N)=O)S3)cc2c1` (stereo not drawn): the melting point fell in the range of 189 to 190 °C.

As to `CC(C)n1cc(-c2nc(C#N)c(N)nc2-c2ccccc2)ccc1=O`, the melting point worked out at 204 °C.

The compound `CC(C)(C)OC(=O)CCNC(=O)c1cccc(NC(=O)c2csc(NC(=O)NCc3ccccc3)n2)c1` yielded a melting point of 212 °C.

One may read the melting point as the temperature of the solid-liquid transition.
